Measurements published in patent US8192962B2, “Processes for detecting toxic substances” (Daikin Industries, Ltd., priority 2001, dated 2012).

Test system: Metabolism protein genes
Experiment: DNA chip mRNA expression in yeast, metabolism protein genes (Table 7)
Assay type: cell-based, Saccharomyces cerevisiae S288C
How it was run: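 S. cerevisiae S288C grown at 25° C. in YPD to log phase, then exposed 2 h to a toxicant at a growth-inhibiting, non-lethal concentration; untreated cells as control. Poly(A) mRNA reverse-transcribed with Cy3-dUTP or Cy5-dUTP, hybridized >12 h at 65° C. to whole-genome yeast DNA chip; value = fluorescence ratio treated/untreated.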

## CCCCCCCCCCCCc1ccc(S(=O)(=O)[O-])cc1.[Na+] [(17), sodium dodecylbenzosulfonate]
Yeast gene YAL012W
  The level of expressed mRNA in the presence of chemical substance/The level of expressed mRNA in the absence of chemical substance: 0.9
Yeast gene YAL038W
  The level of expressed mRNA in the presence of chemical substance/The level of expressed mRNA in the absence of chemical substance: 1.0
Yeast gene YBR003W
  level of expressed mRNA in the presence/in the absence of chemical substance: 1.1
Yeast gene YBR011C
  level of expressed mRNA in the presence/in the absence of chemical substance: 0.8
Yeast gene YBR020W
  level of expressed mRNA in the presence/in the absence of chemical substance: 0.8
Yeast gene YBR023C
  The level of expressed mRNA in the presence of chemical substance/The level of expressed mRNA in the absence of chemical substance: 0.7
Yeast gene YBR029C
  The level of expressed mRNA in the presence of chemical substance/The level of expressed mRNA in the absence of chemical substance: 0.6
Yeast gene YBR183W
  The level of expressed mRNA in the presence of chemical substance/The level of expressed mRNA in the absence of chemical substance: 1.4
Yeast gene YBR222C
  The level of expressed mRNA in the presence of chemical substance/The level of expressed mRNA in the absence of chemical substance: 0.8
Yeast gene YBR256C
  The level of expressed mRNA in the presence of chemical substance/The level of expressed mRNA in the absence of chemical substance: 2.6
Yeast gene YCL009C
  The level of expressed mRNA in the presence of chemical substance/The level of expressed mRNA in the absence of chemical substance: 1.1
Yeast gene YCL064C
  The level of expressed mRNA in the presence of chemical substance/The level of expressed mRNA in the absence of chemical substance: 0.3
Yeast gene YCR010C
  level of expressed mRNA in the presence/in the absence of chemical substance: 1.9
Yeast gene YCR034W
  level of expressed mRNA in the presence/in the absence of chemical substance: 0.9
Yeast gene YCR048W
  The level of expressed mRNA in the presence of chemical substance/The level of expressed mRNA in the absence of chemical substance: 1.2
Yeast gene YCR098C
  The level of expressed mRNA in the presence of chemical substance/The level of expressed mRNA in the absence of chemical substance: 1.7
Yeast gene YDR019C
  The level of expressed mRNA in the presence of chemical substance/The level of expressed mRNA in the absence of chemical substance: 1.2
Yeast gene YDR050C
  level of expressed mRNA in the presence/in the absence of chemical substance: 1.1
Yeast gene YDR073W
  level of expressed mRNA in the presence/in the absence of chemical substance: 1.8
Yeast gene YDR123C
  level of expressed mRNA in the presence/in the absence of chemical substance: 1.3
Yeast gene YDR178W
  level of expressed mRNA in the presence/in the absence of chemical substance: 1.2
Yeast gene YDR277C
  level of expressed mRNA in the presence/in the absence of chemical substance: 1.2
Yeast gene YDR284C
  level of expressed mRNA in the presence/in the absence of chemical substance: 1.5
Yeast gene YDR345C
  level of expressed mRNA in the presence/in the absence of chemical substance: 1.3
Yeast gene YDR380W
  The level of expressed mRNA in the presence of chemical substance/The level of expressed mRNA in the absence of chemical substance: 0.8
Yeast gene YDR400W
  level of expressed mRNA in the presence/in the absence of chemical substance: 1.1
Yeast gene YDR408C
  level of expressed mRNA in the presence/in the absence of chemical substance: 1.1
Yeast gene YDR483W
  level of expressed mRNA in the presence/in the absence of chemical substance: 1.2
Yeast gene YDR497C
  The level of expressed mRNA in the presence of chemical substance/The level of expressed mRNA in the absence of chemical substance: 1.6
Yeast gene YDR502C
  The level of expressed mRNA in the presence of chemical substance/The level of expressed mRNA in the absence of chemical substance: 0.9
Yeast gene YDR516C
  The level of expressed mRNA in the presence of chemical substance/The level of expressed mRNA in the absence of chemical substance: 1.1
Yeast gene YEL063C
  level of expressed mRNA in the presence/in the absence of chemical substance: 0.7
Yeast gene YER015W
  level of expressed mRNA in the presence/in the absence of chemical substance: 1.6
Yeast gene YER026C
  The level of expressed mRNA in the presence of chemical substance/The level of expressed mRNA in the absence of chemical substance: 1.7
Yeast gene YER053C
  The level of expressed mRNA in the presence of chemical substance/The level of expressed mRNA in the absence of chemical substance: 1.2
Yeast gene YER069W
  The level of expressed mRNA in the presence of chemical substance/The level of expressed mRNA in the absence of chemical substance: 1.1
Yeast gene YER081W
  level of expressed mRNA in the presence/in the absence of chemical substance: 1.1
Yeast gene YER096W
  The level of expressed mRNA in the presence of chemical substance/The level of expressed mRNA in the absence of chemical substance: 1.0
Yeast gene YER120W
  level of expressed mRNA in the presence/in the absence of chemical substance: 1.2
Yeast gene YER178W
  The level of expressed mRNA in the presence of chemical substance/The level of expressed mRNA in the absence of chemical substance: 1.1
Yeast gene YFL011W
  level of expressed mRNA in the presence/in the absence of chemical substance: 0.8
Yeast gene YFL014W
  The level of expressed mRNA in the presence of chemical substance/The level of expressed mRNA in the absence of chemical substance: 1.5
Yeast gene YFL030W
  The level of expressed mRNA in the presence of chemical substance/The level of expressed mRNA in the absence of chemical substance: 1.0
Yeast gene YFL031W
  The level of expressed mRNA in the presence of chemical substance/The level of expressed mRNA in the absence of chemical substance: 1.2
Yeast gene YFL056C
  The level of expressed mRNA in the presence of chemical substance/The level of expressed mRNA in the absence of chemical substance: 1.0
Yeast gene YFL057C
  The level of expressed mRNA in the presence of chemical substance/The level of expressed mRNA in the absence of chemical substance: 1.6
Yeast gene YFR047C
  The level of expressed mRNA in the presence of chemical substance/The level of expressed mRNA in the absence of chemical substance: 1.5
Yeast gene YGL012W
  level of expressed mRNA in the presence/in the absence of chemical substance: 0.9
Yeast gene YGL022W
  The level of expressed mRNA in the presence of chemical substance/The level of expressed mRNA in the absence of chemical substance: 0.9
Yeast gene YGL115W
  level of expressed mRNA in the presence/in the absence of chemical substance: 0.8
Yeast gene YGL126W
  The level of expressed mRNA in the presence of chemical substance/The level of expressed mRNA in the absence of chemical substance: 0.9
Yeast gene YGL205W
  level of expressed mRNA in the presence/in the absence of chemical substance: 3.9
Yeast gene YGL209W
  The level of expressed mRNA in the presence of chemical substance/The level of expressed mRNA in the absence of chemical substance: 1.1
Yeast gene YGL248W
  The level of expressed mRNA in the presence of chemical substance/The level of expressed mRNA in the absence of chemical substance: 1.1
Yeast gene YGR037C
  The level of expressed mRNA in the presence of chemical substance/The level of expressed mRNA in the absence of chemical substance: 1.4
Yeast gene YGR055W
  The level of expressed mRNA in the presence of chemical substance/The level of expressed mRNA in the absence of chemical substance: 0.7
Yeast gene YGR096W
  level of expressed mRNA in the presence/in the absence of chemical substance: 0.8
Yeast gene YGR191W
  level of expressed mRNA in the presence/in the absence of chemical substance: 0.8
Yeast gene YGR194C
  The level of expressed mRNA in the presence of chemical substance/The level of expressed mRNA in the absence of chemical substance: 1.1
Yeast gene YGR204W
  level of expressed mRNA in the presence/in the absence of chemical substance: 1.0
Yeast gene YGR256W
  The level of expressed mRNA in the presence of chemical substance/The level of expressed mRNA in the absence of chemical substance: 1.1
Yeast gene YGR282C
  The level of expressed mRNA in the presence of chemical substance/The level of expressed mRNA in the absence of chemical substance: 1.1
Yeast gene YGR288W
  level of expressed mRNA in the presence/in the absence of chemical substance: 1.2
Yeast gene YHR025W
  level of expressed mRNA in the presence/in the absence of chemical substance: 1.0
Yeast gene YHR111W
  The level of expressed mRNA in the presence of chemical substance/The level of expressed mRNA in the absence of chemical substance: 1.1
Yeast gene YHR123W
  level of expressed mRNA in the presence/in the absence of chemical substance: 1.1
Yeast gene YHR137W
  The level of expressed mRNA in the presence of chemical substance/The level of expressed mRNA in the absence of chemical substance: 0.8
Yeast gene YHR174W
  The level of expressed mRNA in the presence of chemical substance/The level of expressed mRNA in the absence of chemical substance: 1.0
Yeast gene YHR176W
  The level of expressed mRNA in the presence of chemical substance/The level of expressed mRNA in the absence of chemical substance: 1.4
Yeast gene YHR210C
  level of expressed mRNA in the presence/in the absence of chemical substance: 1.4
Yeast gene YIL006W
  level of expressed mRNA in the presence/in the absence of chemical substance: 0.8
Yeast gene YIL045W
  The level of expressed mRNA in the presence of chemical substance/The level of expressed mRNA in the absence of chemical substance: 1.1
Yeast gene YIL107C
  The level of expressed mRNA in the presence of chemical substance/The level of expressed mRNA in the absence of chemical substance: 1.2
Yeast gene YIL154C
  The level of expressed mRNA in the presence of chemical substance/The level of expressed mRNA in the absence of chemical substance: 1.2
Yeast gene YIL155C
  The level of expressed mRNA in the presence of chemical substance/The level of expressed mRNA in the absence of chemical substance: 1.1
Yeast gene YIR034C
  The level of expressed mRNA in the presence of chemical substance/The level of expressed mRNA in the absence of chemical substance: 1.0
Yeast gene YIR036C
  The level of expressed mRNA in the presence of chemical substance/The level of expressed mRNA in the absence of chemical substance: 1.5
Yeast gene YJL031C
  The level of expressed mRNA in the presence of chemical substance/The level of expressed mRNA in the absence of chemical substance: 1.2
Yeast gene YJL068C
  The level of expressed mRNA in the presence of chemical substance/The level of expressed mRNA in the absence of chemical substance: 1.4
Yeast gene YJL088W
  The level of expressed mRNA in the presence of chemical substance/The level of expressed mRNA in the absence of chemical substance: 1.4
Yeast gene YJL099W
  The level of expressed mRNA in the presence of chemical substance/The level of expressed mRNA in the absence of chemical substance: 1.2
Yeast gene YJL121C
  level of expressed mRNA in the presence/in the absence of chemical substance: 1.1
Yeast gene YJL167W
  level of expressed mRNA in the presence/in the absence of chemical substance: 1.4
Yeast gene YJL172W
  The level of expressed mRNA in the presence of chemical substance/The level of expressed mRNA in the absence of chemical substance: 1.8
Yeast gene YJL216C
  level of expressed mRNA in the presence/in the absence of chemical substance: 1.2
Yeast gene YJL219W
  The level of expressed mRNA in the presence of chemical substance/The level of expressed mRNA in the absence of chemical substance: 1.6
Yeast gene YJR077C
  level of expressed mRNA in the presence/in the absence of chemical substance: 1.0
Yeast gene YJR137C
  The level of expressed mRNA in the presence of chemical substance/The level of expressed mRNA in the absence of chemical substance: 0.9
Yeast gene YJR143C
  level of expressed mRNA in the presence/in the absence of chemical substance: 0.7
Yeast gene YJR148W
  The level of expressed mRNA in the presence of chemical substance/The level of expressed mRNA in the absence of chemical substance: 1.3
